Assay results reported in patent publication US11352350B2, “IRAK degraders and uses thereof” (Kymera Therapeutics, Inc., priority 2018, dated 2022).
Read-outs that look alike come from different tables or passages of the source.

Columns and labels:
OCI-LY10 = experiment: CTG Cell Viability Assay - OCI-LY10; format: cell-based, human; conditions: OCI-LY10, 4 days, read-out: CTG Cell Viability Assay - OCI-LY10: Average external-IC50
In short: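 OCI-LY10 cells exposed to 9-dose, 1:3 dilutions from 10 μM top (0.2% DMSO) for 4 days at 37° C, 5% CO2. Viability by CellTiter-Glo luminescence; IC50 from three-parameter logistic fit.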

IRAK4 = IRAK4 (Homo sapiens (Human), UniProt Q9NWZ3); experiment: IRAK4 MSD degradation in OCI-LY10; format: cell-based; conditions: MSD
In short: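 OCI-LY10 cells treated with 8-point 1:3 dilutions (top 1 to 10 μM final) for 4 to 24 h at 37° C. Lysate IRAK4 measured by MSD sandwich immunoassay (2H9 capture, Y279 detection, SULFO-TAG anti-rabbit). DC50 from three-parameter logistic fit.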

[1] = OCI-LY10, 4 hrs, read-out: IRAK4 MSD degradation in OCI-LY10 at 4 hrs: Average external-Abs DC50
[2] = OCI-LY10, 24 hrs, read-out: IRAK4 MSD degradation in OCI-LY10 at 24 hrs: Average external-Abs DC50

Chain of IRAK4 (Q9NWZ3 whole entry): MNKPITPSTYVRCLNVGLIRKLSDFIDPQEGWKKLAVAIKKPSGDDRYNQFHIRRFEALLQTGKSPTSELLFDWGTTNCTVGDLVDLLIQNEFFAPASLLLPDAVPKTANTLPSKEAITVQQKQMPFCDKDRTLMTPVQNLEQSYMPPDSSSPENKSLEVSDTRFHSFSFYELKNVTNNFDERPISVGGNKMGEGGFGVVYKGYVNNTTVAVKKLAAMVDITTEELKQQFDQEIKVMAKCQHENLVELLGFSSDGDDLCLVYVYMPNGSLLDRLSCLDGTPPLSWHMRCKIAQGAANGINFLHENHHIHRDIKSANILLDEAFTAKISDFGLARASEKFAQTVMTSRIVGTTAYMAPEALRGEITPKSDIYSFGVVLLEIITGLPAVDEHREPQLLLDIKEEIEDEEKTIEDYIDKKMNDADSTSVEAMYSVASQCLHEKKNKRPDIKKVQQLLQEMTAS

Row | Structure (SMILES) | IC50 (OCI-LY10; Homo sapiens, OCI-Ly10, 96 h) [nM] | DC50 (IRAK4; [1]) [nM] | DC50 (IRAK4; [2]) [nM] | IC50 (OCI-LY10) [nM]
1 | CC[C@@H]1[C@H](F)C(=O)N[C@@H]1COc1ncc(C#C[C@H]2CC[C@H](CN(C)C3CCN(Cc4ccc5c(c4)n(C)c(=O)n5C4CCC(=O)NC4=O)CC3)CC2)c2cc(C(N)=O)c(OC)cc12 (stereo partly shown) [I-190] | > 1000 | 100 to 1000 | 10 to 100 | 
2 | O=C1CCC(N2C(=O)c3cccc(NCCCCOC4CCN(C[C@H]5CC[C@H](n6cc(NC(=O)c7coc(-c8ccnc(NCC9CC9)c8)n7)c(C(F)F)n6)CC5)CC4)c3C2=O)C(=O)N1 (stereo partly shown) [I-170] | < 50 | 10 to 100 |  | 
3 | COc1cc(C(=O)NCCCCN(C)C[C@H]2CC[C@H](n3cc(NC(=O)c4coc(-c5ccnc(NCC6CC6)c5)n4)c(C(F)F)n3)CC2)ccc1NC(=O)[C@@H]1N[C@@H](CC(C)(C)C)[C@](C#N)(c2ccc(Cl)cc2F)[C@H]1c1cccc(Cl)c1F [I-142] |  | > 1000 | > 1000 | > 1000
4 | O=C1CCC(N2Cc3c(OCc4ccc(CN5CCN(C[C@H]6CC[C@H](n7cc(NC(=O)c8cnn9ccc(N%10CCOCC%10)nc89)c(C(F)F)n7)CC6)CC5)cc4)cccc3C2=O)C(=O)N1 (stereo partly shown) [I-377] | < 50 | > 1000 | < 10 | 
5 | Cn1c(=O)n(C2CCC(=O)NC2=O)c2ccc(CN3CCN(C[C@H]4CC[C@H](n5cc(NC(=O)c6coc(-c7ccnc(NCC8CC8)c7)n6)c(C(F)F)n5)CC4)CC3)cc21 (stereo partly shown) [I-243] | > 1000 | < 10 |  | 
6 | CN(CCCOCCCNc1cccc2c1C(=O)N(C1CCC(=O)NC1=O)C2=O)C[C@H]1CC[C@H](n2cc(NC(=O)c3coc(-c4ccnc(N[C@H]5CCCC[C@H]5O)c4)n3)c(C(F)F)n2)CC1 (stereo partly shown) [I-398] | 50 to 100 | 10 to 100 | 10 to 100 | 
7 | O=C1CCC(N2C(=O)c3cccc(NCCOC[C@H]4CC[C@H](n5cc(NC(=O)c6cnn7ccc(N8C[C@H]9C[C@@H]8CO9)nc67)c(C(F)F)n5)CC4)c3C2=O)C(=O)N1 (stereo partly shown) [I-369] | 100 to 500 | > 1000 | > 1000 | 
8 | Cn1c(=O)n(C2CCC(=O)NC2=O)c2cccc(CCCOCCOCCOCCOCC(=O)N3CCN([C@H]4CC[C@H](Nc5ncnc6[nH]cc(C7CCOCC7)c56)CC4)CC3)c21 (stereo partly shown) [I-53] | > 1000 | 100 to 1000 | 10 to 100 | 
9 | COc1cc(C(=O)NCCCCCCN(C)C[C@H]2CC[C@H](n3cc(NC(=O)c4coc(-c5ccnc(NCC6CC6)c5)n4)c(C(F)F)n3)CC2)ccc1NC(=O)[C@@H]1N[C@@H](CC(C)(C)C)[C@](C#N)(c2ccc(Cl)cc2F)[C@H]1c1cccc(Cl)c1F [I-140] |  | > 1000 | > 1000 | > 1000
10 | CC[C@H]1C(COc2ncc(C#C[C@H]3CC[C@H](CN4CCC(OCCCc5cccc6c5c5cccnc5n6C5CCC(=O)NC5=O)CC4)CC3)c3cc(C(N)=O)c(OC)cc23)NC(=O)[C@H]1F (stereo partly shown) [I-205] | > 1000 | 100 to 1000 | 10 to 100 | 
11 | CN(Cc1ccc(CCNc2cccc3c2C(=O)N(C2CCC(=O)NC2=O)C3=O)cc1)C[C@H]1CC[C@H](n2cc(NC(=O)c3cnn4ccc(N5C[C@H]6C[C@@H]5CO6)nc34)c(C(F)F)n2)CC1 (stereo partly drawn) [I-341, N-[3-(difluoromethyl)-1-[4-[[[4-[2-[[2-(2,6-dioxo-3-piperidyl)-1,3-dioxo-isoindolin-4-yl]amino]ethyl]phenyl]methyl-methyl-amino]methyl]cyclohexyl]pyrazol-4-yl]-5-[(1R,4R)-2-oxa-5-azabicyclo [2.2.1]heptan-5-yl] pyrazolo [1,5-a] pyrimidine-3-carboxamide] | > 1000 | 100 to 1000 | 10 to 100 | 
12 | Cn1c(=O)n(C2CCC(=O)NC2=O)c2cccc(CCCOC3CCN(C(=O)[C@H]4CC[C@H](n5cc(NC(=O)c6cnn7ccc(N8CCOCC8)nc67)c(C(F)F)n5)CC4)CC3)c21 (stereo partly shown) [I-149] | > 1000 | < 10 |  | 
13 | Cn1c(=O)n([C@H]2CCC(=O)NC2=O)c2cccc(CCCOC3CCN(C[C@H]4CC[C@H](n5cc(NC(=O)c6cnn7ccc(N8CCOCC8)nc67)c(C(F)F)n5)CC4)CC3)c21 [I-310, N-(3-(difluoromethyl)-1-((1r,4r)-4-((4-(3-(1-((S)-2,6-dioxopiperidin-3-yl)-3-methyl-2-oxo-2,3-dihydro-1H-benzo [d]imidazol-4-yl)propoxy)piperidin-1-yl)methyl)cyclohexyl)-1H-pyrazol-4-yl)-5-morpholinopyrazolo[1,5-a]pyrimidine-3-carboxamide] | > 1000 | < 10 |  | 
14 | CN(CCCOCCc1ccc2c(c1)n(C)c(=O)n2C1CCC(=O)NC1=O)C[C@H]1CC[C@H](n2cc(NC(=O)c3coc(-c4ccnc(NCC5CC5)c4)n3)c(C(F)F)n2)CC1 (stereo partly shown) [I-129] | > 1000 | < 10 |  | 
15 | CN(CCN1CCN(c2cccc3c2C(=O)N(C2CCC(=O)NC2=O)C3=O)CC1)C[C@H]1CC[C@H](n2cc(NC(=O)C3CNN4C=CC(N5CCOCC5)=NC34)c(C(F)F)n2)CC1 (stereo partly shown) [I-224] | > 1000 | 100 to 1000 |  | 
16 | CC[C@@H]1CC(=O)N[C@@H]1COc1ncc(C#C[C@H]2CC[C@@H](CN3CCC(OCCCc4cccc5c4n(C)c(=O)n5C4CCC(=O)NC4=O)CC3)CC2)c2cc(C(N)=O)c(OC)cc12 (stereo partly shown) [I-202] | > 1000 | 100 to 1000 | 10 to 100 | 
17 | CN(C[C@H]1CC[C@H](n2cc(NC(=O)c3cnn4ccc(N5CCOCC5)nc34)c(C(F)F)n2)CC1)C1CCC(Nc2cccc3c2C(=O)N(C2CCC(=O)NC2=O)C3=O)CC1 (stereo partly shown) [I-221] | 50 to 100 | < 10 |  | 
18 | CC[C@@H]1[C@H](F)C(=O)N[C@@H]1COc1ncc(C#C[C@H]2CC[C@H](CN3CCC(OCCCc4cccc5c4n(C)c(=O)n5C4CCC(=O)NC4=O)CC3)CC2)c2cc(C(N)=O)c(OC)cc12 (stereo partly shown) [I-186] | > 1000 | 10 to 100 | < 10 | 
19 | CC[C@@H]1CC(=O)N[C@@H]1COc1ncc(C#C[C@H]2CC[C@@H](CN(C)CCCOCCCc3cccc4c3n(C)c(=O)n4C3CCC(=O)NC3=O)CC2)c2cc(C(N)=O)c(OC)cc12 (stereo partly shown) [I-201] | > 1000 | > 1000 | 100 to 1000 | 
20 | CN(CCCOCCCc1cccc2c1n(C)c(=O)n2[C@H]1CCC(=O)NC1=O)C[C@H]1CC[C@H](n2cc(NC(=O)c3coc(-c4ccnc(NCC5CC5)c4)n3)c(C(F)F)n2)CC1 (single isomer, unassigned) [I-306] | > 1000 | < 10 |  | 
21 | Cn1c(=O)n(C2CCC(=O)NC2=O)c2cccc(CCCOC3CCN(C[C@H]4CC[C@H](n5cc(NC(=O)c6cnn7ccc(N8CCOCC8)nc67)c(C(C)(C)O)n5)CC4)CC3)c21 (stereo partly shown) [I-216] | > 1000 | 100 to 1000 |  | 
22 | NC[C@H]1CC[C@H](n2cc(NC(=O)c3cnn4ccc(N5CCOCC5)nc34)c(C(F)F)n2)CC1 [I-313, N-[l-[4-(aminomethyl)cyclohexyl]-3-(difluoromethyl)pyrazol-4-yl]-5-morpholino-pyrazolo [1,5-a]pyrimidine-3-carboxamide] | > 1000 | > 1000 | > 1000 | 
23 | O=C1CCC(N2C[C@@H](c3ccc(C#CCCOC4CCN(C[C@H]5CC[C@H](n6cc(NC(=O)c7cnn8ccc(N9CCC(O)CC9)nc78)c(C(F)F)n6)CC5)CC4)cc3)OC2=O)C(=O)N1 (stereo partly shown) [I-152] | > 1000 | 10 to 100 |  | 
24 | O=C1CCC(n2c3cccc(CCCOC4CCN(C[C@H]5CC[C@H](n6cc(NC(=O)c7cnn8ccc(N9CCC(O)CC9)nc78)c(C(F)F)n6)CC5)CC4)c3c3cccnc32)C(=O)N1 (stereo partly shown) [I-151] | > 1000 | 10 to 100 |  | 
25 | NCC#Cc1ccc(-n2cc(NC(=O)c3coc(-c4ccnc(NCC5CC5)c4)n3)c(C(F)F)n2)cc1 [I-391, N-[l-[4-(3-aminoprop-1-ynyl)phenyl]-3-(difluoromethyl)pyrazol-4-yl]-2-[2-(cyclopropylmethylamino)-4-pyridyl]oxazole-4-carboxamide] | > 1000 | > 1000 | > 1000 | 
26 | O=C1CCC(N2C(=O)c3cccc(NCCCOC4CCN(C[C@H]5CC[C@H](n6cc(NC(=O)c7cnn8ccc(N9C[C@H]%10C[C@@H]9CO%10)nc78)c(C(F)F)n6)CC5)CC4)c3C2=O)C(=O)N1 (stereo partly shown) [I-371] | 50 to 100 |  | 10 to 100 | 
27 | Cn1c(=O)n(C2CCC(=O)NC2=O)c2ccc(CN3CCC(CN4CCC(n5cc(NC(=O)c6coc(-c7ccnc(NCC8CC8)c7)n6)c(C(F)F)n5)CC4)CC3)cc21 (stereo not shown) [I-182] | > 1000 | 100 to 1000 |  | 
28 | O=C1CCC(N2C(=O)c3cccc(NCCCOCCCOC[C@H]4CC[C@H](n5cc(NC(=O)c6cnn7ccc(N8C[C@H]9C[C@@H]8CO9)nc67)c(C(F)F)n5)CC4)c3C2=O)C(=O)N1 (stereo partly shown) [I-363] | > 1000 | > 1000 |  | 
